# According to US8114406B2, “Peptides and their utility in modulation of behavior of cells expressing α3β1 integrins” (The United States of America as represented by the …, priority 1999, dated 2012):
# Read-outs that look alike come from different tables or passages of the source. Where no end group is shown, it is not given here.
# How the values were obtained:
# MDA-MB-435 cells = assay: MDA-MB-435 cell spreading on matrix proteins, inhibition by soluble peptide; assay type: cell-based, human; details: 10 μM peptide 678 (FIG. 4A)
# Experimental: FIGS. 4A and 4B are graphs illustrating the inhibition of breast carcinoma cell spreading on matrix proteins by peptide 678. […] Cell spreading is presented as mean±SD, n=3. Panel B: Inhibition of MDA-MB-435 cell attachment to surfaces coated with 10 μM peptide 678 (●) or laminin peptide GD6 (◯) was measured in the presence of the indicated concentrations of peptide 678 added in solution.
# (§1) Adhesion assays of cells other than small cell lung carcinoma (SCLC)-Adhesion was measured on polystyrene or glass substrates coated with peptides or proteins as previously described (Guo et al., 1992). Peptides dissolved in PBS at 0.4 to 50 μM were incubated in polystyrene microliter plate wells overnight at 4° C. The wells were washed 3 times with distilled water. Adsorbed peptide was quantified using the BCA assay (Pierce Chemical) measuring absorbance at 570 and 630 nm as described by the supplier's protocol. The assay for adsorption was calibrated using purified peptide in solution as a standard. After blocking with 1% BSA in Dulbecco's PBS, adhesion assays were performed by adding cells suspended in DMEM (BAE cells) or medium 199 (human cells) containing 1 mg/ml BSA. Cell attachment and spreading was quantified microscopically.
# BAE cells [1] = assay: Scratch wound repair of BAE cells; assay type: cell-based, bovine; details: cells arrested using 5-fluorouracil; 24 h
# Experimental: BAE cells were seeded at a density of 2×10^5 cells/well of 6 well tissue culture plates in complete growth medium supplemented with 10% FBS. After the cells formed a confluent cobblestone, cells were arrested using 10 μg/ml 5-fluorouracil for 48 h. Scrape wounds of 2 mm, width were made in the wells, and the cells were further incubated with medium containing 10% FBS, 10 μg/ml 5 fluorouracil and peptides 678, 709, or 690. Measurements of the distance between the wound margins were taken at 0 and 24 h, and the net migration is expressed as mean±SEM for triplicates.
# The in vitro wound healing assay used was a slight modification of that described by Joyce et al. (Joyce et al., 1989). A confluent monolayer of BAE cells pretreated with 10 μg/ml 5-fluorouracil for […] were used in this assay. […] Mitosis of the BAE cells in the monolayers was inhibited by addition of 5-fluorouracil, so that the rate of wound closure was due solely to the migration of cells into the wound sites. The distances between the wound margins were measured as soon as the wound was made and 24 hours later using a grid incorporated into the eye piece of the microscope. All data represent the results obtained from three independent scratch wounds for each peptide tested.
# [2] = tested on: MDA-MB-435 breast carcinoma cells
# Experimental: MDA-MB-435 cell adhesion to microliter plate wells coated with 5 uM peptide 678 was determined in the presence of the indicated concentrations of soluble carboxamidomethyl-peptide 716 or peptide 716 covalently linked to FICOLL™ as previously described (Guo et al., 1997). After washing twice to remove unattached cells, adherent cells were quantified by detection of cellular hexosaminidase using p-nitrophenyl-N-acetylglucosaminide as substrate. Released p-nitrophenol was detected by absorbance at 405 nm. Results are mean+/−SD, n=3.
# In this case, the adherent cells are quantified by detection of cellular hexosaminidase using p-nitrophenyl-N-acetylglucosaminidine as substrate. Released p-nitrophenol is detected by absorbance at 405 nm.
# BAE cells [3] = details: added in solution
# Experimental: (§2) Briefly, 100 μl of a 5×10^4 cell/ml suspension of BAE cells were seeded in triplicate into 96 well tissue culture plate in DMEM medium containing 1% FCS, 10 ng/ml of FGF2 and peptides at 1-40 μM concentrations. Cells were incubated for 72 h, and proliferation was measured using the Celltiter tetrazolium assay (Promega). […] Proliferation was determined at 72 h, and is presented as a percent of the control, mean±S.D., n=3 for experimental points and n=6 for control. […] FIG. 19E: HDME cell proliferation in MCDB growth medium with 5% FCS was determined in the presence of 10 ng/ml FGF2 and the indicated concentrations of TSP1 added in the medium (Δ) or immobilized on the substrate (●) or in wells coated with the indicated concentrations of peptide 678 (●).
# (§3) Cell proliferation was measured using the Cell-Titer colorimetric assay (Promega) as previously described (Vogel et al., 1993). A 100 μl volume of BAE cell suspension at 50,000 cells/ml in DMEM containing 1% FBS and supplemented with 10 ng/ml FGF2 was plated in triplicate in 96 well tissue culture plates either in the presence of peptides in solution or in wells that were pre-coated with 100 μl of the peptides at 40° C. overnight and aspirated just before adding cells. Cells were grown for 72 hours at 37° C. in a humidified incubator with 5% CO2. […] HDME cell proliferation was measured in MCDB growth medium without heparin, VEGF, or FGF2.
# [4] = tested on: MDA-MB-435 breast carcinoma cells; assay: Inhibition of MDA-MB-435 cell adhesion to immobilized peptide 678 (microscopic adhesion assay); assay type: cell-based, human
# Experimental: as §1
# HUVE cells = assay: HUVE cell proliferation; assay type: cell-based, human
# Experimental: Briefly, 100 μl of a 5×10^4 cell/ml suspension of BAE cells were seeded in triplicate into 96 well tissue culture plate in DMEM medium containing 1% FCS, 10 ng/ml of FGF2 and peptides at 1-40 μM concentrations. Cells were incubated for 72 h, and proliferation was measured using the Celltiter tetrazolium assay (Promega). […] Proliferation was determined at 72 h, and is presented as a percent of the control, mean±S.D., n=3 for experimental points and n=6 for control.
# Cell proliferation was measured using the Cell-Titer colorimetric assay (Promega) as previously described (Vogel et al., 1993). A 100 μl volume of BAE cell suspension at 50,000 cells/ml in DMEM containing 1% FBS and supplemented with 10 ng/ml FGF2 was plated in triplicate in 96 well tissue culture plates either in the presence of peptides in solution or in wells that were pre-coated with 100 μl of the peptides at […] overnight and aspirated just before adding cells. Cells were grown for 72 hours at 37° C. in a humidified incubator with 5% CO2. HUVEC proliferation was measured by the same protocol but using medium 199 containing 5% FCS without heparin. HDME cell proliferation was measured in MCDB growth medium without heparin, VEGF, or FGF2.
# HDME cells = assay: HDME cell proliferation; assay type: cell-based, human
# Experimental: as §2, §3
# HUVEC = HUVEC spreading on coated substrates; assay type: cell-based, human; details: for percent spread HUVEC on immobilized substrate: data not shown
# Experimental: FIGS. 14A, 14B and 14C display α3β1 and αvβ3 integrin-mediated spreading of endothelial cells on thrombospondin-1. […] Results are expressed as percent of the response for untreated cells, mean±S.D., n=3.
# as §1
# [5] = tested on: chick chorioallantoic membrane (CAM) angiogenesis; assay: Chick chorioallantoic membrane (CAM) angiogenesis assay; assay type: in vivo, chicken; details: for Angiogenic response (% inhibition): relative to control gels, mean ± SD
# Experimental: Fertilized Leghorn chicken eggs were obtained from Ramona Duck farm (Westminster, Calif.). At day 3 of development, the embryos were placed on 100 mm petri dishes. Assays were performed as previously described (Iruela-Arispe et al., 1999). […] Peptides were filtered on Centricon P100 prior to their analysis on the CAM assays to eliminate traces of endotoxin. Pellets were applied to the outer ⅓ of the CAM, and the assay was performed for 24 h. Detection of capillary growth was done by injection of FITC-dextran in the bloodstream and observation of the pellets under a fluorescent inverted microscope. Positive controls (growth factors and vehicle), as well as negative controls (vehicle alone) were placed in the same CAM and used as reference of 100% stimulation or baseline inhibition (0%), and response to the peptides was determined according to these internal controls. Assays were performed in duplicate in each CAM and in four independent CAMs (total of 8 pellets).
sequence,measurement,setting,value
FQGVLQNVRFVF [Peptide 678],inhibition of MDA-MB-435 spreading on TSP1 and murine laminin-1/entactin,MDA-MB-435 cells,strongly inhibited
same,inhibition of MDA-MB-435 spreading on fibronectin or type IV collagen,MDA-MB-435 cells,did not inhibit
same,inhibition of BAE cell migration into the wound,BAE cells [1],dose-dependent inhibitor
same,IC50,[2],15 µM
same,inhibition of BAE cell proliferation,BAE cells [3],inhibited
same,IC50,"[4]; Table 3, 5 μM peptide 678, read-out: IC50 (μM), inhibition of MDA-MB-435 cell adhesion to immobilized peptide 678",3.5 µM
same,IC50,"[4]; microscopic adhesion assay, polystyrene coated with 5 μM peptide 678, peptides in solution, read-out: Inhibition of peptide 678 (IC50)",3.5 µM
same,"HUVE cell proliferation, peptide in solution",HUVE cells; added in solution,significantly inhibited
same,HUVE cell proliferation on immobilized peptide,HUVE cells; immobilized on the substrate,increased their proliferation
same,HDME cell proliferation after plating on immobilized substance,HDME cells,enhancement
same,inhibition of HUVEC spreading on vitronectin,HUVEC,not significantly inhibited
same,inhibition of HUVEC spreading on TSP1,HUVEC; 20 μM peptide 678 (FIG. 14B),70±7%
same,percent spread HUVEC on immobilized substrate,HUVEC; confluent cells,3±1%
same,percent spread HUVEC on immobilized substrate,HUVEC; sparse cultures,12±3%
same,Angiogenic response (% inhibition),[5]; 5 μM peptide,2 ± 5%
same,Angiogenic response (% inhibition),[5]; 10 μM peptide,17 ± 7%
same,Angiogenic response (% inhibition),[5]; 20 μM peptide,37 ± 9%
same,angiogenesis stimulated by FGF2,[5]; 20 micromolar,68±5 % of control
same,angiogenesis stimulated by VEGF,[5]; 20 micromolar,73±7 % of control
same,angiogenesis stimulated by a mixture of both growth factors,[5]; 20 micromolar,59±5 % of control
